Reference: US11702404B2, “GLP-1R modulating compounds” (priority 2019, dated 2023)

Assays:
[1] = Microsomal stability, human liver microsomes (predicted hepatic clearance); conditions: predicted from in vitro microsomal stability data
GLP-1R = GLP-1R (Homo sapiens, UniProt P43220); assay: GLP-1R activation: cAMP increase in CHO cells stably expressing GLP-1R; assay type: cell-based; conditions: cAMP increase, CHO cells stably expressing GLP-1R, 10 point dose response, 30 minutes incubation; read-out: EC50
GLP-1R, sequence (P43220 24-463): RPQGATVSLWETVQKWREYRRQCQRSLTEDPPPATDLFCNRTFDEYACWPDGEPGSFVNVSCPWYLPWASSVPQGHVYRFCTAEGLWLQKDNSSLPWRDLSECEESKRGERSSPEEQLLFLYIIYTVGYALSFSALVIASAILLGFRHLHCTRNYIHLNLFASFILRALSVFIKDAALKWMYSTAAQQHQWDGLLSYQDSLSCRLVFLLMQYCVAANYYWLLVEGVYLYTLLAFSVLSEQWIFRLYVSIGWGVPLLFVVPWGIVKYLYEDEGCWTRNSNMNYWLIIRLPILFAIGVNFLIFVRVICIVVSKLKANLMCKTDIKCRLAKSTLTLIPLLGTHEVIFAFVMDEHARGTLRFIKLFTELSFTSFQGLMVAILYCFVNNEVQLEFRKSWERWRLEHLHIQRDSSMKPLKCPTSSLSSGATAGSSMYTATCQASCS

SMILES | Predicted Hepatic Clearance (Pred. Cl.) [1] [mL/min/kg] | EC50 (GLP-1R) [nM]
COCCn1c(Cc2ccc(-c3cccc(OCc4ccc5c(c4)OC(F)(F)O5)n3)cc2F)nc2ccc(C(=O)O)cc21 [Example 250, 2-(4-(6-((2,2-difluorobenzo[d][1,3]dioxol-5-yl)methoxy)pyridin-2-yl)-2-fluorobenzyl)-1-(2-methoxyethyl)-1H-benzo[d]imidazole-6-carboxylic acid] | <1.83 | 11.7
COCCn1c(Cc2cc(F)c(-c3cccc(OCc4ccc(-c5ccccn5)cc4F)n3)cc2F)nc2ccc(C(=O)O)cc21 [Example 910] | 2.83 | 33.4
COCCn1c(Cc2ncc(-c3cccc(OCc4ccc(C#N)cc4F)n3)cc2Cl)nc2ccc(C(=O)O)cc21 [Example 518, 2-((5′-chloro-6-((4-cyano-2-fluorobenzyl)oxy)-[2,3′-bipyridin]-6′-yl)methyl)-1-(2-methoxyethyl)-1H-benzo[d]imidazole-6-carboxylic acid] | 5.33 | 43.1
COCCn1c(Cc2ccc(-c3cccc(O[C@H](C)c4ccccc4)n3)cc2F)nc2ccc(C(=O)O)cc21 [Example 515, (R)-2-(2-fluoro-4-(6-(1-phenylethoxy)pyridin-2-yl)benzyl)-1-(2-methoxyethyl)-1H-benzo[d]imidazole-6-carboxylic acid] | 7.5 | 876
O=C(O)c1ccc2nc(Cc3c(F)cc(-c4cccc(OCc5ccc(C(F)F)cc5F)n4)c(F)c3F)n(CC34CC(CO3)C4)c2c1 [Example 756] | 7.67 | 1.42
N#CCC1(Cn2c(Cc3ccc(-c4cccc(OCc5ccc(C#N)cc5F)n4)cc3F)nc3ccc(C(=O)O)nc32)CC1 [Example 600, 2-(4-(6-((4-cyano-2-fluorobenzyl)oxy)pyridin-2-yl)-2-fluorobenzyl)-3-((1-(cyanomethyl)cyclopropyl)methyl)-3H-imidazo[4,5-b]pyridine-5-carboxylic acid] | 6.7 | 0.1
N#CCC1(Cn2c(Cc3ccc(-c4ccc(F)c(OCc5ccc(C#N)cc5F)n4)cc3F)nc3c(F)cc(C(N)=O)cc32)CC1 [Example 597, 2-(4-(6-((4-cyano-2-fluorobenzyl)oxy)-5-fluoropyridin-2-yl)-2-fluorobenzyl)-1-((1-(cyanomethyl)cyclopropyl)methyl)-4-fluoro-1H-benzo[d]imidazole-6-carboxamide] | 9.83 | 13.8
N#Cc1ccc(COc2cccc(-c3cc(F)c(Cc4nc5ccc(C(=O)O)cc5n4CC4(n5ccnn5)CC4)cc3F)n2)c(F)c1 [Example 577, 1-((1-(1H-1,2,3-triazol-1-yl)cyclopropyl)methyl)-2-(4-(6-((4-cyano-2-fluorobenzyl)oxy)pyridin-2-yl)-2,5-difluorobenzyl)-1H-benzo[d]imidazole-6-carboxylic acid] | 7.5 | 0.4
COCCn1c(Cc2ccc(-c3cccc(OCc4ccc(C#N)nc4)n3)cc2F)nc2ccc(C(=O)O)cc21 [Example 216, 2-(4-(6-((6-cyanopyridin-3-yl)methoxy)pyridin-2-yl)-2-fluorobenzyl)-1-(2-methoxyethyl)-1H-benzo[d]imidazole-6-carboxylic acid] | <1.83 | 110
N#Cc1ccc(COc2cccc(-c3cc(F)c(Cc4nc5ccc(C(=O)O)cc5n4[C@H]4CCNC4=O)cc3F)n2)c(F)c1 [Example 630] | 2.67 | 39.4
CO[C@H]1COC[C@H]1n1c(Cc2cc(F)c(-c3cccc(OCc4ccc(C#N)cc4F)n3)cc2F)nc2ccc(C(=O)O)cc21 (single isomer, unassigned) [Example 891, 2-(4-(6-((4-cyano-2-fluorobenzyl)oxy)pyridin-2-yl)-2,5-difluorobenzyl)-1-(cis-4-methoxytetrahydrofuran-3-yl)-1H-benzo[d]imidazole-6-carboxylic acid] | 6.67 | 0.25
COC[C@@H](CF)n1c(Cc2cc(F)c(-c3cccc(OCc4ccc(C#N)cc4F)n3)cc2F)nc2ccc(C(=O)O)cc21 [Example 726] | 5.5 | 7.26
